Data published in article PMC11249646, “Small-Molecule Disruptors of the Interaction between Calcium- and Integrin-Binding Protein 1 and Integrin αIIbβ3 as Novel Antiplatelet Agents” (ACS Pharmacology & Translational Science, 2024).
Where two headings read alike, the source gives them in different places.

Assays:
[1] = biological target: T1, GST-CIB1 : F-scrambled peptide (Homo sapiens, UniProt Q99828); assay: FP scrambled-peptide counter screen, 1536-well format; assay type: binding; details: for Curve Class (counterscreen) / COUNTERSCREEN Curve Class: qHTS curve class; for IC50: read-out: IC50 [μM] (counterscreen)
T1 construct: made in house; host or cells: BL-21 plus RIL cells (E. coli)
T1 sequence (Q99828 1-191): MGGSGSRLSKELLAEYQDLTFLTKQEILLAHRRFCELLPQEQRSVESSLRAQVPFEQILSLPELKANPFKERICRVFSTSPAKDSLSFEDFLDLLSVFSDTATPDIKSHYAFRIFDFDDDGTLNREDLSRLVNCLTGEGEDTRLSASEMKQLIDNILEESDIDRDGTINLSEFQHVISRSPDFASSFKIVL

[2] = biological target: T2, CIB1 and αIIb interaction (CIB1-GST : F-αIIb peptide) (Homo sapiens, UniProt Q99828); assay: FP assay, 1536-well qHTS format (primary and confirmatory screen); assay type: binding; details: for Curve Class (confirmatory screen) / CONFIRMATORY SCREEN Curve Class: qHTS curve class
T2 construct: made in house; host or cells: BL-21 plus RIL cells (E. coli)
T2 sequence (Q99828 1-191): T1 sequence (Q99828 1-191)

[3] = counterscreen, negative sign = inhibitory curve
[4] = confirmatory screen, negative sign = inhibitory curve
[5] = confirmatory screen, read-out: IC50 [μM] (confirmatory screen)
[6] = qHTS primary screen hits, Table S2, negative = inhibition
[7] = qHTS primary screen hits, Table S2, negative sign = inhibitory curve, several classes where COUNT > 1
[8] = qHTS primary screen hits, Table S2, read-out: IC50
[9] = Table S3, counterscreen, a negative sign marks inhibitory curves
[10] = Table S3, counterscreen, negative = inhibition
[11] = Table S3, confirmatory screen, YES/NO call
[12] = Table S3, confirmatory screen, a negative sign marks inhibitory curves
[13] = Table S3, confirmatory screen, negative = inhibition
[14] = Table S3, confirmatory screen, read-out: IC50 [μM] (confirmatory screen)
[15] = Table S3, counterscreen, YES/NO call
[16] = qHTS primary screen hits, Table S2, negative sign = inhibitory curve
[17] = qHTS FP screen hits, Table S2, negative = inhibition
[18] = qHTS FP screen hits, Table S2, one class per curve where COUNT > 1, negative sign = inhibitory curve
[19] = qHTS FP screen hits, Table S2, read-out: IC50

Compound | Efficacy (%) (counterscreen) ([1]; counterscreen) | Curve Class (counterscreen) [1, 3] | IC50 ([1]; counterscreen) [µM] | Efficacy (%) (confirmatory screen) ([2]; confirmatory screen) | Confirm? (confirmatory screen) ([2]; confirmatory screen, YES/NO) | Curve Class (confirmatory screen) [2, 4] | IC50 [2, 5] [µM] | Efficacy (%) [2, 6] [%] | Curve Class [2, 7] | IC50 [2, 8] [µM] | Efficacy (%) (counterscreen) [1, 10] | Curve Class (confirmatory screen) [2, 12] | Efficacy (%) (confirmatory screen) [2, 13] | Efficacy (%) [2, 17] [%] | IC50 [2, 19] [µM] | other results
CCOC(=O)c1[nH]c2c(c1C)C(=S)CC(c1ccco1)C2.O=C(O)C(F)(F)F (stereo not shown) [NCGC00238571-01] | -30 | -1.4 | 7.1 | -73 | YES | -1.2 | 35.5 | -69 | -2.2 | 50.1 | – | – | – | – | – | –
O=C(O)C(F)(F)F.O=C1CCCC2=C1C(c1n[nH]cc1Cl)NC(Nc1nc3ccccc3o1)=N2 (stereo not shown) [NCGC00238624-04] | – | – | – | – | – | – | – | – | – | – | -54 | -1.2 | -34 | – | – | Curve Class (counterscreen) [1, 9]: -1.2; IC50 ([1]; Table S3, counterscreen): 35.5 µM; Confirm? (confirmatory screen) [2, 11]: YES; IC50 [2, 14]: 25.1 µM
Cc1ccc(OCCn2c(CCNC(=O)c3ccsc3)nc3ccccc32)cc1.O=C(O)C(F)(F)F [NCGC00238707-01] | – | – | – | – | – | – | – | -22 | -1.4 | 11.2 | 109 | 3 | 35 | – | – | IC50 ([1]; Table S3, counterscreen): 50.1 µM
CCOC(=O)c1ccc(O)c2ncc(N3CCC(C(=N)N)CC3)cc12.O=C(O)C(F)(F)F [NCGC00241051-01] | -115 | -1.3 | 7.1 | -129 | YES | -1.1 | – | -93 | -1.1 | – | – | – | – | – | – | –
CC1(C)OB(c2ccc(O)c3ncc(N4CCNCC4)cc23)OC1(C)C.O=C(O)C(F)(F)F [NCGC00241053-01] | -102 | -1.1 | 20 | -132 | YES | -2.1 | 31.6 | -78 | -2.2 | 50.1 | – | – | – | – | – | –
NC(=O)c1cccc(-c2cnc3c(O)ccc(C(=O)O)c3c2)c1.O=C(O)C(F)(F)F [NCGC00241055-01] | – | – | – | – | – | – | – | -35 | – | 31.6 | -42 | 4 | -31 | – | – | Confirm? (counterscreen) [1, 15]: YES; Curve Class (counterscreen) [1, 9]: -2.4; IC50 ([1]; Table S3, counterscreen): 35.5 µM; Curve Class [2, 16]: -2.4
COc1cc(Nc2c(C#N)cnc3cc(OCCCN4CCN(C)CC4)c(OC)cc23)c(Cl)cc1Cl [NCGC00241107-05] | -37 | -1.4 | 20 | -73 | YES | -2.2 | 44.7 | – | – | – | – | – | – | -33 | 50.1 | Curve Class [2, 18]: -2.2
CCOc1ccc(CCNC(C)=O)cc1OCC.O=C(O)C(F)(F)F [NCGC00241413-01] | – | – | – | – | – | – | – | – | – | – | – | – | – | -45 | 39.8 | COUNTERSCREEN Efficacy (%) ([1]; counterscreen): 0%; COUNTERSCREEN Curve Class ([1]; counterscreen): 4; CONFIRMATORY SCREEN Efficacy (%) ([2]; confirmatory screen): -11%; CONFIRMATORY SCREEN Curve Class ([2]; confirmatory screen): 4; Curve Class [2, 18]: -2.2
CCOc1ccc(CCNC(=O)c2ccc(N3N=C(C)CC3=O)cc2)cc1OCC.O=C(O)C(F)(F)F [NCGC00241439-01] | – | – | – | – | – | – | – | -42 | -1.2 | 22.4 | -33 | 4 | -41 | – | – | Curve Class (counterscreen) [1, 9]: 4
CN(C(=O)c1cccs1)c1cccnc1.O=C(O)C(F)(F)F [NCGC00241518-01] | – | – | – | – | – | – | – | – | – | – | -118 | -1.1 | -90 | -77 | 50.1 | Curve Class (counterscreen) [1, 9]: -2.1; IC50 ([1]; Table S3, counterscreen): 44.7 µM; Confirm? (confirmatory screen) [2, 11]: YES; IC50 [2, 14]: 31.6 µM; Curve Class [2, 18]: -2.2
CCN1C(=O)c2ccccc2[S+]([O-])c2ccc(C(=O)Nc3ncc(C)s3)cc21 (stereo not shown) [NCGC00241655-01] | – | – | – | – | – | – | – | -23 | -2.4 | 39.8 | – | – | – | – | – | COUNTERSCREEN Efficacy (%) ([1]; counterscreen): -33%; COUNTERSCREEN Curve Class ([1]; counterscreen): 4; CONFIRMATORY SCREEN Efficacy (%) ([2]; confirmatory screen): -10%; CONFIRMATORY SCREEN Curve Class ([2]; confirmatory screen): 4
CCN1C(=O)c2ccccc2[S+]([O-])c2ccc(C(=O)NCc3cccc(F)c3)cc21 (stereo not shown) [NCGC00241657-01] | -26 | -1.4 | 35.5 | -68 | YES | -2.2 | 50.1 | -70 | – | 39.8 | – | – | – | – | – | Confirm? (counterscreen) ([1]; counterscreen, YES/NO): YES; Curve Class [2, 16]: -2.2
Fc1ccc(NC(=S)Nc2nnc(-c3ccncc3)s2)cc1C(F)(F)F.O=C(O)C(F)(F)F [NCGC00241743-01] | – | – | – | – | – | – | – | – | – | – | – | – | – | -41 | 22.4 | COUNTERSCREEN Efficacy (%) ([1]; counterscreen): 39%; COUNTERSCREEN Curve Class ([1]; counterscreen): 4; CONFIRMATORY SCREEN Efficacy (%) ([2]; confirmatory screen): -35%; CONFIRMATORY SCREEN Curve Class ([2]; confirmatory screen): 4; Curve Class [2, 18]: -2.2
O=C(O)C(F)(F)F.O=C(O)c1ccc(O)c2ncc(N3CCC(N4CCOCC4)C3)cc12 (stereo not shown) [NCGC00241757-01] | – | – | – | – | – | – | – | – | – | – | – | – | – | -22 | 35.5 | COUNTERSCREEN Efficacy (%) ([1]; counterscreen): -21%; COUNTERSCREEN Curve Class ([1]; counterscreen): 4; CONFIRMATORY SCREEN Efficacy (%) ([2]; confirmatory screen): -17%; CONFIRMATORY SCREEN Curve Class ([2]; confirmatory screen): 4
O=C(O)C(F)(F)F.O=C(O)c1ccc(O)c2ncc(-c3n[nH]nc3-c3ccccc3)cc12 [NCGC00241764-01] | -33 | 4 | – | -23 | YES | -1.4 | 39.8 | – | – | – | – | – | – | -21 | 28.2 | Confirm? (counterscreen) ([1]; counterscreen, YES/NO): YES
CC1=C[C@@H]2[C@H]([C@@H](O)C[C@@]3(C)[C@H]2C[C@@H](C)[C@]3(O)C(=O)CO)[C@@]2(C)Cc3cnn(-c4ccccc4)c3C=C12 [NCGC00242505-01] | -41 | -1.2 | 12.6 | -46 | YES | -1.4 | 15.8 | -30 | – | 37.6 | – | – | – | – | – | –
CCOC(=O)C1CCN(C(=O)C(C)(C)NC(=O)Nc2ccc(C#N)cc2)CC1.O=C(O)C(F)(F)F [NCGC00242565-01] | -30 | -1.4 | 15.8 | -28 | YES | -1.4 | 7.9 | – | – | – | – | – | – | -22 | 2.2 | –
CC(C)c1ccc(NC(=S)N/N=C2\C(=O)Nc3ccccc32)cc1.O=C(O)C(F)(F)F [NCGC00242646-01] | – | – | – | – | – | – | – | -16 | -1.4 | 10 | -36 | 4 | -28 | – | – | Confirm? (counterscreen) [1, 15]: YES; Curve Class (counterscreen) [1, 9]: -1.2; IC50 ([1]; Table S3, counterscreen): 12.6 µM
O=C(O)C(F)(F)F.O=C1Nc2ccccc2/C1=N/NC(=S)Nc1cccnc1 [NCGC00242647-01] | – | – | – | – | – | – | – | -32 | -1.4 | 17.8 | – | – | – | – | – | COUNTERSCREEN Efficacy (%) ([1]; counterscreen): -17%; COUNTERSCREEN Curve Class ([1]; counterscreen): 4; CONFIRMATORY SCREEN Efficacy (%) ([2]; confirmatory screen): -44%; CONFIRMATORY SCREEN Curve Class ([2]; confirmatory screen): 4
CCc1ccc(NC(=O)C(=O)NNC(=O)c2cccs2)cc1.O=C(O)C(F)(F)F [NCGC00244112-01] | – | – | – | – | – | – | – | -22 | – | 3.2 | 71 | 4 | 0 | – | – | IC50 ([1]; Table S3, counterscreen): 89.1 µM; Curve Class [2, 16]: -1.4
Cc1cc(C)nc(NC(=S)N2CCN(c3ccc4nsnc4c3)CC2)c1.O=C(O)C(F)(F)F [NCGC00244160-01] | -93 | -2.2 | 39.8 | -106 | YES | -2.1 | – | -85 | -2.1 | 50.1 | – | – | – | – | – | –
FC(F)(F)c1cccc(N2CCN(C(=S)Nc3nccc4cccnc34)CC2)c1.O=C(O)C(F)(F)F [NCGC00244201-01] | -43 | -1.2 | 22.4 | -88 | YES | -2.2 | – | – | – | – | – | – | – | -55 | 28.2 | Curve Class [2, 18]: -1.2
